From US9233989B2, “Sila analogs of oxazolidinone derivatives and synthesis thereof” (Council of Scientific & Industrial Research, priority 2011, dated 2016)
Values after ≈ are worked out from the molar mass of the structure shown.

Legend:
MRSA 0-2657 = assay: MIC by microbroth dilution method; type: cell-based, S. aureus
E.faecium 06076 VRE = assay: MIC by microbroth dilution method; type: cell-based
S.epidermidis ATCC 12228 = assay: MIC by microbroth dilution method; type: cell-based
E.faecium ATCC 19434 = assay: MIC by microbroth dilution method; type: cell-based
S.epidermidis ATCC 14990 = assay: MIC by microbroth dilution method; type: cell-based
S.aureus ATCC 29213 = assay: MIC by microbroth dilution method; type: cell-based
MRSA DB 00026 = assay: MIC by microbroth dilution method; type: cell-based, S. aureus
S.epidermis St 358 = assay: MIC by microbroth dilution method; type: cell-based, S. epidermidis
[1] = system: S.aureus ATCC 700699 Mu50; assay: MIC by microbroth dilution method; type: cell-based
E.coli 7632 = assay: MIC by microbroth dilution method; type: cell-based
[2] = system: S.aureus ATCC 49775 PVL + ve; type: cell-based
MRSE ATCC 35983 = assay: MIC by microbroth dilution method; type: cell-based, S. epidermidis
E.faecium ATCC 49224 = assay: MIC by microbroth dilution method; type: cell-based
[3] = system: E.faecalis ATCC 51299(VRE&HLAR); assay: MIC by microbroth dilution method; type: cell-based
MRSA 252 BAA 1720 = assay: MIC by microbroth dilution method; type: cell-based, S. aureus
S.aureus2 (PVL + ve) = type: cell-based, S. aureus
S.aureus DB00026 = assay: MIC by microbroth dilution method; type: cell-based
E.faecium 6A VRE = assay: MIC by microbroth dilution method; type: cell-based
MRSA 562 = assay: MIC by microbroth dilution method; type: cell-based, S. aureus
[4] = system: S.aureus 13709 LNZ mutant; type: cell-based
E.faecium ATCC 3567 = assay: MIC by microbroth dilution method; type: cell-based
[5] = system: S.aureus ATCC Newman 25904; assay: MIC by microbroth dilution method; type: cell-based
MRSE ATCC 35984 = assay: MIC by microbroth dilution method; type: cell-based, S. epidermidis
E.faecalis ATCC 19433 = assay: MIC by microbroth dilution method; type: cell-based
MRSA ATCC 43300 = assay: MIC by microbroth dilution method; type: cell-based, S. aureus
[6] = system: S.aureus ATCC 13709 Smith; assay: MIC by microbroth dilution method; type: cell-based
E.faecalis SP 346 VRE = assay: MIC by microbroth dilution method; type: cell-based
E.faecium ATCC 35667 = assay: MIC by microbroth dilution method; type: cell-based
E.faecalis ATCC 29212 = assay: MIC by microbroth dilution method; type: cell-based
E.faecium 134 VRE = assay: MIC by microbroth dilution method; type: cell-based
MRSA ATCC BAA 39 = assay: MIC by microbroth dilution method; type: cell-based, S. aureus
[7] = system: Mycobacterium tuberculosis H37Rv; assay: Anti-TB activity, colorimetric resazurin microtiter assay; type: cell-based; conditions: Mycobacterium tuberculosis, H37RV, read-out: MIC, Minimum Inhibitory Concentration (90%)

Structure (SMILES)	MIC (MRSA 0-2657)	MIC (E.faecium 06076 VRE) [µg/mL]	MIC (S.epidermidis ATCC 12228) [µg/mL]	MIC (E.faecium ATCC 19434) [µg/mL]	melting point [°C]	MIC (S.epidermidis ATCC 14990) [µg/mL]	MIC (S.aureus ATCC 29213) [µg/mL]	MIC (MRSA DB 00026) [µg/mL]	MIC (S.epidermis St 358) [µg/mL]	MIC [1] [µg/mL]	MIC (E.coli 7632) [µg/mL]	MIC [2]	MIC (MRSE ATCC 35983) [µg/mL]	MIC (E.faecium ATCC 49224) [µg/mL]	MIC [3] [µg/mL]	MIC (MRSA 252 BAA 1720) [µg/mL]	MIC (S.aureus2 (PVL + ve)) [µg/mL]	MIC (S.aureus DB00026) [µg/mL]	MIC (E.faecium 6A VRE) [µg/mL]	MIC (MRSA 562) [µg/mL]	further results
C[Si]1(C)CCN(c2c(F)cc(N3C[C@H](CO)OC3=O)cc2F)CC1 [NDS-10052, (R)-3-(4-(4,4-dimethyl-1,4-azasilinan-1-yl)-3,5-difluorophenyl)-5-(hydroxymethyl)oxazolidin-2-one]	> 32 µg/mL	> 32	> 32	16 (≈ 44.9 µM)	126 to 128	16 (≈ 44.9 µM)	> 32	> 32	> 32	8 (≈ 22.4 µM)	> 32	> 32 µg/mL	> 32	8 (≈ 22.4 µM)	> 32	> 32	> 32	32 (≈ 89.8 µM)	8 (≈ 22.4 µM)	16 (≈ 44.9 µM)	MIC [4]: > 32 µg/mL; MIC (E.faecium ATCC 3567): 32 µg/mL (≈ 89.8 µM); MIC [5]: > 32 µg/mL; MIC (MRSE ATCC 35984): 32 µg/mL (≈ 89.8 µM); MIC (E.faecalis ATCC 19433): > 32 µg/mL; MIC (MRSA ATCC 43300): > 32 µg/mL; MIC [6]: > 32 µg/mL; MIC (E.faecalis SP 346 VRE): > 32 µg/mL; MIC (E.faecium ATCC 35667): 32 µg/mL (≈ 89.8 µM); MIC (E.faecalis ATCC 29212): > 32 µg/mL; MIC (E.faecium 134 VRE): > 32 µg/mL; MIC (MRSA ATCC BAA 39): 16 µg/mL (≈ 44.9 µM)
C[Si]1(c2ccccc2)CCN(c2c(F)cc(N3C[C@H](CO)OC3=O)cc2F)CC1 [NDS-10071, (R)-3-(3,5-difluoro-4-(4-methyl-4-phenyl-1,4-azasilinan-1-yl)phenyl)-5-(hydroxylmethyl)oxazolidin-2-one]	8(ppt)	32 (≈ 76.5 µM)	> 32	32 (≈ 76.5 µM)	105 to 107	16 (≈ 38.2 µM)	> 32	16 (≈ 38.2 µM)	16 (≈ 38.2 µM)	32 (≈ 76.5 µM)	16 (≈ 38.2 µM)	16(ppt)	16 (≈ 38.2 µM)	32 (≈ 76.5 µM)	32 (≈ 76.5 µM)	32 (≈ 76.5 µM)	32 (≈ 76.5 µM)	32 (≈ 76.5 µM)	32 (≈ 76.5 µM)	32 (≈ 76.5 µM)	MIC [4]: 16(ppt); MIC (E.faecium ATCC 3567): > 32 µg/mL; MIC [5]: 16 µg/mL (≈ 38.2 µM); MIC (MRSE ATCC 35984): 16 µg/mL (≈ 38.2 µM); MIC (E.faecalis ATCC 19433): 16 µg/mL (≈ 38.2 µM); MIC (MRSA ATCC 43300): > 32 µg/mL; MIC [6]: 32 µg/mL (≈ 76.5 µM); MIC (E.faecalis SP 346 VRE): 16(ppt); MIC (E.faecium ATCC 35667): 16 µg/mL (≈ 38.2 µM); MIC (E.faecalis ATCC 29212): 8 µg/mL (≈ 19.1 µM); MIC (E.faecium 134 VRE): 8 µg/mL (≈ 19.1 µM); MIC (MRSA ATCC BAA 39): 32 µg/mL (≈ 76.5 µM); MIC [7]: 50 µg/mL (≈ 119 µM)
